# Source: patent publication US4414388A, “1-Oxo-1H-thiazolo[3,2-a]pyrimidine-2-carboxamides” (Pfizer Inc., priority 1981, dated 1983)
# Tests used:
# [1] = test system: dextran induced release of histamine; test: dextran induced release of histamine into the rat peritoneal cavity; format: in vivo; details: ip
# Text: Compound III inhibits dextran induced release of histamine into the rat peritoneal cavity.
# [2] = test system: passive systemic anaphylaxis; test: passive systemic anaphylaxis (rise in plasma histamine on antigen challenge); format: in vivo, rat
# [3] = test system: inhaled histamine; test: bronchoconstrictive effects of inhaled histamine; format: in vivo, guinea pig; details: 30 mg/kg i.p.
# [4] = test system: cold-restraint stress gastric ulcer; test: cold-restraint stressed rat assay; format: in vivo
# Description: The effectiveness of the products of this invention as anticulcer agents is determined by the so-called cold-restraint stressed rat assay. In this test nonfasted female rats (Charles River C-D strain) weighing 70-140 gms. are administered the drug or carrier (control animals) intraperitoneally (in saline solution containing 1% carboxymethylcellulose and 0.1% Tween 80) or orally (in water) three hours before being lightly anesthetized with ether and taped in the supine position to individual sheets of plexiglass. After recovery from anesthesia, the restrained animals are positioned horizontally in a refrigerator maintained at 10°-12° C. and three hours later sacrificed by cervical dislocation. The abdomen of each rat is opened, the pylorus clamped, the stomach inflated with saline via an oral tube, the esophagus clamped and the stomach excised. The stomachs are placed in a 0.4% formaldehyde solution for approximately 30 seconds to harden the outer layers and facilitate examination. Each stomach is then cut open along the greater curvature and the glandular portion (hind stomach) examined for damage. The number of gastric erosions, their severity and the color of the stomachs is recorded. […]
# [5] = test system: ulcerogenic effects of aspirin; test: aspirin-induced gastric ulcer; format: in vivo; details: po; aspirin 100 mg/kg p.o.
# Description: Compound III also protects against the ulcerogenic effects of aspirin, 100 mg/kg p.o. where dose-related effects are seen over the dose range of 10 to 1000 μg/kg, p.o. with an ED50 of 100 μg/kg. Compound III is also active in a phenylbutazone gastric ulcer model where an oral ED50 of 200 μg/kg is observed. […] "Cytoprotective," a term coined recently to describe the antiulcer effects of prostaglandins that are independent of antisecretory activity, [Robert, Advances in Prostaglandin and Thromboxane Research 2, 507 (1976); Miller et al., Gut 20, 75 (1979); Robert et al., Gastroenterology 72, 1121 (1977).] aptly characterizes the effects of compound III.
# [6] = test system: phenylbutazone gastric ulcer; test: phenylbutazone gastric ulcer model; format: in vivo; details: po
# Text: Miller et al., Gut 20, 75 (1979); Robert et al., Gastroenterology 72, 1121 (1977).] aptly characterizes the effects of compound III.
# [7] = test system: pentagastrin-stimulated acid output; test: pentagastrin-stimulated acid output in Heidenhain pouch dogs; format: in vivo, dog; details: 5 mg/kg, i.v.
# [8] = test system: urinary volume output; test: diuretic activity; format: in vivo; details: oral
# Description: When given orally, it caused a dose-related increase in urinary volume output at doses in the range 0.3 to 5 mg/kg. […] These findings indicate that the dose-response range for diuretic activity is considerably higher than that for antiulcer effects and just below that for antiallergy effects (1 to 10 mg/kg).
# [9] = test system: blood glucose; test: blood glucose levels in fasted rats; format: in vivo, rat; details: oral, 10, 30 or 100 mg/kg; fasted 24 hours
# [10] = test system: glucose tolerance; test: glucose tolerance; format: in vivo, rat; details: 10, 30, or 100 mg/kg p.o. with glucose 1 g/kg p.o.
# Text: This effect may be due to a delayed absorption of glucose related to a possible effect on gastric emptying.
# [11] = test system: dogs; test: toleration study in dogs, 7 days oral; format: in vivo, dog
# Description: In toleration studies, III was given orally by gavage to dogs for a period of seven days at doses of 50, 150 and 300 mg/kg/day.
# [12] = test system: dogs; test: dogs, intravenous five days, serum enzymes; format: in vivo, dog; details: i.v. five days at 1, 3, 10, 3 and 3 mg/kg
# [13] = test system: rats; test: toleration study in rats, 10 days oral; format: in vivo, rat
# Description: Rats were given III orally by gavage at doses of 50, 150 and 300 mg/kg/day for 10 days.
# [14] = acute subcutaneous toleration in mice; details: mouse, in vivo, sc; subcutaneous, mice
# Description: (§1) Compound III was administered subcutaneously to mice at doses of 100, 300 or 1000 mg/kg.
# [15] = test system: mice; test: acute subcutaneous toleration in mice; details: mouse, in vivo
# Description: as §1
# [16] = test system: bone marrow; test: chromosomal damage in bone marrow of mice; format: in vivo, mouse; details: single oral dose 40 mg/kg; 6, 12 or 24 hours
# Description: Single oral doses of III, 40 mg/kg, were administered to groups of mice who were sacrificed 6, 12 or 24 hours later. […] From these findings, it is evident that III has no obvious mutagenic potential.
# [17] = test system: human lymphocytes; test: chromosomal breakage in human lymphocytes in vitro; format: cell-based; details: 1000, 100, 10 or 0 μg/ml
# [18] = test system: point mutations; test: Ames test in vitro; format: cell-based
# [19] = oral gavage 50, 150 and 300 mg/kg/day, seven days
# [20] = oral gavage 50, 150 and 300 mg/kg/day
smiles,measurement,setting,value
"O=C(Nc1nnn[nH]1)c1cnc2sc3c(n2c1=O)CCCC3 [compound III, N-(5-tetrazolyl)-1-oxo-1H-cyclohexenothiazolo[3,2-a]pyrimidine-2-carboxamide]",ED50,[1],0.33 µg/kg
same,ED50,"[2]; Rattus norvegicus, iv, rats passively sensitized with IgE-rich antiserum",0.028 mg/kg
same,rise in plasma histamine caused by antigen challenge,"[2]; rat, in vivo",prevented
same,protection against bronchoconstrictive effects of inhaled histamine,[3],not protected
same,"potency in the cold-restraint stress gastric ulcer procedure and the ethanol-induced rat ulcer assay, in words",[4]; oral,highly potent
same,potency in the cold-restraint stressed rat assay,"[4]; rat, in vivo",extremely potent
same,ED50,[5],0.1 mg/kg
same,ED50,[6],0.2 mg/kg
same,pentagastrin-stimulated acid output,[7],does not affect pentagastrin-stimulated acid output
same,sodium and potassium excretion,[8],an increase in sodium and potassium excretion was observed
same,urinary concentrations of sodium and potassium ions,[8],unchanged
same,maximum effect on urinary volume output,[8]; 0.3 to 5 mg/kg,twofold increase in volume output
same,changes in blood glucose levels,[9],did not exhibit any changes in blood glucose levels
same,effect on glucose tolerance,[10],apparent dose-dependent improvement in glucose tolerance
same,emetic effect when administered by capsule after meals,"[11]; capsule after, rather than before, meals",could be eliminated
same,emesis,[11]; [19],observed at all doses
same,gross pathological changes,[11]; [19],No gross pathological changes were observed
same,"microscopic examination of liver, kidney, heart and lung",[11]; [19],did not reveal any changes
same,serum enzyme levels,[12],remained normal
same,serum glutamic-pyruvic transaminase,[13]; highest dose (300 mg/kg/day),slight increase
same,changes in clinical chemistry (other than serum glutamic-pyruvic transaminase),[13]; [20],no changes in clinical chemistry were observed
same,"pathological changes on gross and microscopic evaluation of liver, kidney, heart and lung",[13]; [20],no resultant pathological changes
same,LD50,[14],> 1000 mg/kg
same,symptoms or lethality,[15],No symptoms or lethality was observed
same,"chromosomal damage in bone marrow, single dose",[16],did not reveal any chromosomal damage
same,chromosomal breakage in human lymphocytes,[17],failed to reveal any significant drug-induced chromosomal breakage
same,"point mutations, Ames test",[18],did not induce point mutations
